Reference: US11744903B2, “Method for preparing cyclodextrin metal organic framework (CD-MOF) stable in aqueous phase” (Qilu University of Technology, priority 2022, dated 2023)

Experiment: Encapsulation rate of β-CD-MOF for active substances
Type: physicochemical
Conditions: carrier β-CD-MOF; loaded by impregnation, Examples 1-5

SMILES | Encapsulation rate [%]
O=C/C=C/c1ccccc1 [Cinnamic aldehyde, cinnamic aldehyde] | 79.68 ± 0.28
COc1cc2c(=O)c(-c3ccc(O)cc3)coc2cc1O [Glycitein, glycitein] | 76.34 ± 0.23
O=C1C[C@@H](c2ccc(O)cc2)Oc2cc(O)cc(O)c21 [Naringenin, naringenin] | 70.23 ± 0.15

Now from value to compound:

Encapsulation rate [%] | SMILES
82.19 ± 0.35 | Oc1ccc(C=Cc2cc(O)cc(O)c2)cc1 [Resveratrol, resveratrol]
76.40 ± 0.67 | Cc1coc2c1C(=O)C(=O)c1c-2ccc2c1CCCC2(C)C [Tanshinone IIA, tanshinone IIA]
